Reference: patent US5750826A, “Bradykinin B2 receptor modified transgenic non-human animals” (Merck & Co., Inc., priority 1996, dated 1998)
Like-named read-outs stand apart in the source and are kept apart here. Where no end group is shown, it is not given here.

Assays:
[1] = target: T1, human B2 bradykinin receptor (Homo sapiens, UniProt P30411); assay: Competition binding against 100 pM [3H]BK at the cloned human B2 receptor (COS-7); conditions: for competition for BK binding: COS-7; for specificity of binding (rank order): COS-7 expressed human B2 receptor; for IC50: [3H]BK binding to human B2 receptor
T1 construct: placing the entire B2 clone under the control of the CMV promoter; expressed in transfected cells
T1 sequence (P30411 1-364 isoform P30411-2): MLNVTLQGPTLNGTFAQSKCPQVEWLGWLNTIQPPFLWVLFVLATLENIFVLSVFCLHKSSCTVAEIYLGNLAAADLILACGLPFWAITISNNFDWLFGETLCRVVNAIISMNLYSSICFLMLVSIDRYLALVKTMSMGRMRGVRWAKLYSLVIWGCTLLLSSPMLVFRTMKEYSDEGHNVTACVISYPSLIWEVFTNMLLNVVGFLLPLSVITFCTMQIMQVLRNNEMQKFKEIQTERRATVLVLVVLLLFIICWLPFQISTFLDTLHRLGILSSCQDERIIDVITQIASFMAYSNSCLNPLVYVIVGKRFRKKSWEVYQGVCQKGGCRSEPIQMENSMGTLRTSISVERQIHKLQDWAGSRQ
Method: In order to enable expression of the cDNA that encodes for the B2 bradykinin receptor, COS-7 cells were transfected using LIPOFECTIN (BRL, Gaithersburg, Md.) with 50ug/10^7 cells of the B2 receptor cDNA subcloned into the eukaryotic expression vector pcDNA I-Neo (Invitrogen). Cells were then harvested after 72 hours and the membranes containing the expressed receptor protein were prepared by scraping the cells in phosphate buffered saline solution and centrifuging for ten minutes at 500× g. The cell pellet was then resuspended and homogenized with a Polytron in 20 mM N-tris(hydroxymethyl)methyl-2-aminoethane sulfonic acid (TES,pH 6.8 at room temperature) buffer containing 1 mM 1, 10 phenanthroline. The homogenate was then centrifuged for ten minutes at 500 × g. The final membrane pellet was resuspended in assay buffer (TES plus 0.1% protease free bovine serum albumin, 5 uM MK-422 (enalaprilat; Gross et al., 1981) and 140 ug/ml bacitracin using a motor-driven teflon-glass tissue homogenizer. Protein determination was performed by the method of Bradford using bovine IgG as the standard. See Bradford, M.A. Anal. Biochem. 72, 248-254 (1976).
Binding assays were then performed to determine receptor antagonist or agonist interaction. The assays utilized in the instant invention follow the method of Manning et al., J. Pharmacol. Exp. Ther., 237, 504-512 (1986). […] (BRANDEL, Gaithersburg, Md.). The tubes were rinsed two times with 4 ml ice-cold […] and the filter bound radioactivity was quantitated by liquid scintillation counting. […] The competition and saturation experiments were analyzed using the EBDA program of McPherson. See McPherson, G.A. J Pharmacol. Methods 14, 213-218 (1985).

[2] = system: rat vas deferens; conditions: cited from earlier work; for pre- or postsynaptic BK like responses: rat vas deferens
[3] = system: murine AB2.1 ES cells, pBS-KO-1 transformants; assay: FIAU counter-selection of pBS-KO-1 ES cell transformants; assay type: cell-based, mouse; conditions: FIAU 0.2 μM
Method: Targeted alteration of the bradykinin B2 gene in murine ES cells The gene replacement vector used in the B2 gene disruption experiments was the pBS-KO-1 vector. When this vector recombined with the wild-type B2 allele to generate the B2 knock-out (B2 KO), the entire coding sequence for the B2 receptor was deleted (FIG. 2). The mouse embryonic stem cell line AB2.1 was electroporated with Not I -linearized pBS-KO-1 in multiple experiments. All AB2.1 ES cells were cultured on SNL feeder cells as described (Robertson, in Teratocarcinomas and embryonic stem cells, IRL Press, pp. 71-112 (1987)). Electroporations were performed with 4×10^6 ES cells and 25 μg linearized pBS-KO-l in 0.8 ml electroporation buffer (Specialty Media, Inc.) at 300v, 250 μF using a Bio-Rad Gene Pulser. ES cell transformants were selected with the antibiotic geneticin (Gibco G418: 200 μg/ml active G418), and some transformants were counter-selected with FIAU (Bristol Myers Squibb; 0.2 μM) for enhancement of homologous recombinants. Murine leukemia inhibitory factor (LIF; ESGRO, Gibco BRL, Inc.) was used at 1000 U/ml. […] G418-and FIAU-resistant ES clones were isolated by picking and growing individual colonies, and their genomic DNAs were prepared from AB2.1 5 KO-I-transformants as described (Laird et al., Nucleic Acids Res. 19:4293 (1991).

[4] = target: T2, mouse B2 bradykinin receptor (Mus musculus, UniProt P32299); assay: Effect of guanine nucleotides on binding of BK to membranes (mouse B2 receptor, COS-7); conditions: increasing concentrations of guanine nucleotide
T2 construct: The PCR product begins 99 bp upstream of the initiator methionine codon and ends 49 bp downstream of the stop codon; expressed in transfected cells; host or cells: COS-7 (transient), pcDNAI-Neo
T2 sequence (P32299 1-366 isoform P32299-2): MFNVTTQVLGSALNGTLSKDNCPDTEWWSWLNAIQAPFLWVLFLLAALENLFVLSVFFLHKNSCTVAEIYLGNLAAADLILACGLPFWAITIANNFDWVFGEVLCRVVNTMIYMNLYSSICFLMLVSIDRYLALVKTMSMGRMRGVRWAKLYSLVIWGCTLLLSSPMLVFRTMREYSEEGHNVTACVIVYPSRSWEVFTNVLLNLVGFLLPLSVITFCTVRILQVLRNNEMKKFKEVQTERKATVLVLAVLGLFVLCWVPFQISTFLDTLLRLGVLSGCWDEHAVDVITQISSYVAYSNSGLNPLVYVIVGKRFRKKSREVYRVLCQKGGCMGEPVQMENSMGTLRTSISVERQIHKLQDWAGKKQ
Excerpt: The binding of BK to membranes was reduced by increasing concentrations of GTP, guanosine 5'-O-(3-thiotriphosphate) or 5'guanylylimidodiphosphate.

[5] = target: T2, mouse B2 bradykinin receptor; assay: Competition binding using 100 pM [3H]BK at the expressed mouse B2 bradykinin receptor
Method: (§1) Binding assays were then performed to determine receptor antagonist or agonist interaction. The assays utilized in the instant invention follow the method of Manning et al., J. Pharmacol. Exp. Ther., 237, 504-512 (1986). [^3 H]BK at various concentrations was incubated for 60 minutes at 25° C. with approximately 50ug membrane protein from COS-7 cells in a volume of 1 ml. The assay was terminated by filtration over Whatman GF/B filters presoaked for 3 hours in 0.1 % polyethyleneimine using a BRANDEL M-24 CELL […] (BRANDEL, Gaithersburg, Md.). The tubes were rinsed two times with 4 ml ice-cold […] and the filter bound radioactivity was quantitated by liquid scintillation counting. Nonspecific binding was determined by performing incubation in the presence of 1 uM BK and generally represents less than 5% of the total binding at 100pM ^3 H]BK. Competition binding experiments, in the presence of 100pM[^3 H]BK, were performed with varying concentrations of the test compound(s). The competition and saturation experiments were analyzed using the EBDA program of McPherson. See McPherson, G.A. J Pharmacol. Methods 14, 213-218 (1985).
To verify the pharmacological properties of the mouse bradykinin B2 receptor the coding sequence of the mouse B2 bradykinin receptor was isolated by PCR (Perkin Elmer/Cetus) using a Techne thermocycler with the template being the EcoR I by Hind III genomic fragment in pSP72 and the 5' primer 5'-[…]-3' (SEQ.ID.NO.:8) and the 3' primer 5'- […]-3' (SEQ.ID.NO.:9). The PCR product was subcloned into the Hind III and Xba I sites of the eukaryotic expression vector pcDNAI-Neo (Invitrogen). The PCR product begins 99 bp upstream of the initiator methionine codon and ends 49 bp downstream of the stop codon. The DNA sequence analysis using Sequenase (US Biochemical) of the subcloned PCR product confirmed that the sequence was identical to that in the original genomic fragment.

[6] = system: B1 receptor; conditions: cited from earlier work
[7] = system: B2 receptor; conditions: cited from earlier work
[8] = target: T2, mouse B2 bradykinin receptor; assay: Saturation binding to whole COS cells transiently expressing the mouse B2 receptor; conditions: single high affinity site, read-out: KD for [3H]BK
Method: as §1, with “[^3 H]BK at various concentrations was incubated for 60 minutes at 25° C. with approximately 50ug membrane protein from COS-7 cells in a volume of 1 ml.” left out
To verify the pharmacological properties of the mouse bradykinin B2 receptor the coding sequence of the mouse B2 bradykinin receptor was isolated by PCR (Perkin Elmer/Cetus) using a Techne thermocycler with the template being the EcoR I by Hind III genomic fragment in pSP72 and the 5' primer 5'-[…]-3' (SEQ.ID.NO.:8) and the 3' primer 5'- […]-3' (SEQ.ID.NO.:9). […]

[9] = expressed mouse B2 receptor, 100 pM [3H]BK

CC[C@H](C)[C@@H]1NC(=O)[C@H](Cc2ccc(O)cc2)NC(=O)[C@@H](N)CSSC[C@@H](C(=O)N2CCC[C@H]2C(=O)N[C@@H](CC(C)C)C(=O)NCC(N)=O)NC(=O)[C@H](CC(N)=O)NC(=O)[C@H](CCC(N)=O)NC1=O [oxytocin]
competition for BK binding ([1]; human B2 receptor): No competition for BK binding

Des-Arg^9,LeuBK: B1 antagonist
inhibition of BK binding ([1]; 10 uM, human B2 receptor): 11%
antagonism of BK responses ([2]; high concentrations, vas deferens): failed to antagonize BK responses
pre- or postsynaptic BK like responses [2]: inactive

angiotensin I: peptide (DRVYIHPFHL; Angiotensin-1; UniProt P01019 25-34, looked up)
competition for BK binding ([1]; human B2 receptor): No competition for BK binding

neurotensin
competition for BK binding ([1]; human B2 receptor): No competition for BK binding

O=c1[nH]c(=O)n([C@@H]2O[C@H](CO)[C@@H](O)[C@@H]2F)cc1I [FIAU, 1-(2-deoxy 2-fluoro-B-D-arabinofluranosyl)-5-iodouracil]
fewer background pBS-KO-1 transformants [3]: about eleven

Nc1nc2c(ncn2[C@@H]2O[C@H](COP(=O)(O)OP(=O)(O)OP(O)(O)=S)[C@@H](O)[C@H]2O)c(=O)[nH]1 [guanosine 5'-O-(3-thiotriphosphate)]
binding of BK to membranes [4]: reduced

CSCC[C@H](N)C(=O)N[C@@H](CCCCN)C(=O)N[C@@H](CCCNC(=N)N)C(=O)N1CCC[C@H]1C(=O)N1CCC[C@H]1C(=O)NCC(=O)N[C@@H](Cc1ccccc1)C(=O)N[C@@H](CO)C(=O)N1CCC[C@H]1C(=O)N[C@@H](Cc1ccccc1)C(=O)N[C@@H](CCCNC(=N)N)C(=O)O [met-lys-BK]
specificity of binding (rank order) [1]: BK>lys-BK>met-lys-BK

angiotensin II: peptide (DRVYIHPF; Angiotensin-2; UniProt P01019 25-32, looked up)
competition for BK binding ([1]; human B2 receptor): No competition for BK binding

Nc1nc2c(ncn2[C@@H]2O[C@H](COP(=O)(O)OP(=O)(O)NP(=O)(O)O)[C@@H](O)[C@H]2O)c(=O)[nH]1 [5'guanylylimidodiphosphate]
binding of BK to membranes [4]: reduced

[Thi^5,8,D-Phe^7 ]BK
IC50 [1]: 0.18 µM

D-Arg^0-[Hyp^2,3, Thi^5,8 D-Phe^7 ]BK
IC50 [1]: 0.027 µM

N=C(N)NCCC[C@H](NC(=O)[C@@H](N)CCCCN)C(=O)N1CCC[C@H]1C(=O)N1CCC[C@H]1C(=O)NCC(=O)N[C@@H](Cc1ccccc1)C(=O)N[C@@H](CO)C(=O)N1CCC[C@H]1C(=O)N[C@@H](Cc1ccccc1)C(=O)O [[des-Arg^10]-kallidin]
IC50 [5]: 25 µM
affinity [5, 9]: very low affinity

N=C(N)NCCC[C@H](N)C(=O)N1CCC[C@H]1C(=O)N1CCC[C@H]1C(=O)NCC(=O)N[C@@H](Cc1ccccc1)C(=O)N[C@@H](CO)C(=O)N1CCC[C@H]1C(=O)N[C@@H](Cc1ccccc1)C(=O)O [Des-Arg^9 BK]
inhibition at 10 µM ([1]; 10 uM, human B2 receptor): 18%
affinity [5, 9]: very low affinity
IC50 ([5]; expressed mouse B2 receptor, 100 pM [3H]BK, read-out: IC50): 6 µM
pre- or postsynaptic BK like responses [2]: inactive
potency as B1 receptor agonist relative to BK [6]: higher potency than BK
activity at B2 receptors [7]: inactive at B2 receptors

Nc1nc2c(ncn2[C@@H]2O[C@H](COP(=O)(O)OP(=O)(O)OP(=O)(O)O)[C@@H](O)[C@H]2O)c(=O)[nH]1 [GTP, guanosine triphosphate]
binding of BK to membranes [4]: reduced

N=C(N)NCCC[C@H](NC(=O)[C@H](Cc1ccccc1)NC(=O)[C@@H]1CCCN1C(=O)[C@H](CO)NC(=O)[C@H](Cc1ccccc1)NC(=O)CNC(=O)[C@@H]1CCCN1C(=O)[C@@H]1CCCN1C(=O)[C@H](CCCNC(=N)N)NC(=O)[C@@H](N)CCCCN)C(=O)O [kallidin]
specificity of binding (rank order) [1]: BK>lys-BK>met-lys-BK
affinity [5, 9]: high (subnanomolar) affinity

[^3 H]BK: radioligand [3H]BK used in binding assays (RPPGFSPFR; also: tritium label; UniProt P01042 381-389, looked up)
Kd [8]: 0.0002 ± 3e-05 µM

endothelin: peptide
competition for BK binding ([1]; human B2 receptor): No competition for BK binding
